For one molecule, Kd results are on record in article PMC12631102, “SYT4 Interacts with PSMC6 to Facilitate Malignant Progression in Gastric Carcinoma via Activating Wnt/β-catenin Signaling” (International Journal of Biological Sciences, 2025).

The target in this experiment is T1, Synaptotagmin-4 (SYT4) (Homo sapiens, UniProt Q9H2B2).
T1 construct: Recombinant SYT4 protein
T1 sequence (Q9H2B2 1-425): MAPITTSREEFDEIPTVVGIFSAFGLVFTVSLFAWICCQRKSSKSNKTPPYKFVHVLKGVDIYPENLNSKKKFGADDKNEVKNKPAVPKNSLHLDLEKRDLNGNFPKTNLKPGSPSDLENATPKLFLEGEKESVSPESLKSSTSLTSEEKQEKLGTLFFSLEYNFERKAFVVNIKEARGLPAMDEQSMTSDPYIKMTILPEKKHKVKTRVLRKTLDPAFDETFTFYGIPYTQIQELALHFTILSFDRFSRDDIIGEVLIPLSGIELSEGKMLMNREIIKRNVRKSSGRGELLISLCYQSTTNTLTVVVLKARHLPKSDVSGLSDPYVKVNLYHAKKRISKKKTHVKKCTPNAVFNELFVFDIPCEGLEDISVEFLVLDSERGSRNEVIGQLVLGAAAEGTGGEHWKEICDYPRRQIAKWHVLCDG
Description: SPR (Biacore T200, SYT4 immobilized on CM5 chip). In kind it is binding. Background: Surface plasmon resonance follows binding to a sensor surface in real time, without labels.

The structures appear in SMILES notation.

For orientation: Kd means a measure of binding affinity in units of concentration. Low readings indicate higher affinity, high ones lower affinity.

Consider `C=CC(=O)Nc1ccc2[nH]c(=O)n(C3CCN(Cc4ccc(-c5nc6cc[nH]c(=O)c6cc5-c5ccccc5)cc4)CC3)c2c1` [borussertib], for which the equilibrium dissociation constant (Kd) was 16 µM.
